The source of these data is patent US20260258003A1, “SLACK-ACTIVATING COMPOUNDS AND THEIR MEDICAL USE” (Johann Wolfgang Goethe-Universität Frankfurt am Main, priority 2023, published 2026).

Molecules are shown by their SMILES.

Data set [1] has as its target T1, human Slack (Homo sapiens, UniProt Q5JUK3).
T1 construct: host or cells: HEK293
T1 sequence (Q5JUK3 1-1230): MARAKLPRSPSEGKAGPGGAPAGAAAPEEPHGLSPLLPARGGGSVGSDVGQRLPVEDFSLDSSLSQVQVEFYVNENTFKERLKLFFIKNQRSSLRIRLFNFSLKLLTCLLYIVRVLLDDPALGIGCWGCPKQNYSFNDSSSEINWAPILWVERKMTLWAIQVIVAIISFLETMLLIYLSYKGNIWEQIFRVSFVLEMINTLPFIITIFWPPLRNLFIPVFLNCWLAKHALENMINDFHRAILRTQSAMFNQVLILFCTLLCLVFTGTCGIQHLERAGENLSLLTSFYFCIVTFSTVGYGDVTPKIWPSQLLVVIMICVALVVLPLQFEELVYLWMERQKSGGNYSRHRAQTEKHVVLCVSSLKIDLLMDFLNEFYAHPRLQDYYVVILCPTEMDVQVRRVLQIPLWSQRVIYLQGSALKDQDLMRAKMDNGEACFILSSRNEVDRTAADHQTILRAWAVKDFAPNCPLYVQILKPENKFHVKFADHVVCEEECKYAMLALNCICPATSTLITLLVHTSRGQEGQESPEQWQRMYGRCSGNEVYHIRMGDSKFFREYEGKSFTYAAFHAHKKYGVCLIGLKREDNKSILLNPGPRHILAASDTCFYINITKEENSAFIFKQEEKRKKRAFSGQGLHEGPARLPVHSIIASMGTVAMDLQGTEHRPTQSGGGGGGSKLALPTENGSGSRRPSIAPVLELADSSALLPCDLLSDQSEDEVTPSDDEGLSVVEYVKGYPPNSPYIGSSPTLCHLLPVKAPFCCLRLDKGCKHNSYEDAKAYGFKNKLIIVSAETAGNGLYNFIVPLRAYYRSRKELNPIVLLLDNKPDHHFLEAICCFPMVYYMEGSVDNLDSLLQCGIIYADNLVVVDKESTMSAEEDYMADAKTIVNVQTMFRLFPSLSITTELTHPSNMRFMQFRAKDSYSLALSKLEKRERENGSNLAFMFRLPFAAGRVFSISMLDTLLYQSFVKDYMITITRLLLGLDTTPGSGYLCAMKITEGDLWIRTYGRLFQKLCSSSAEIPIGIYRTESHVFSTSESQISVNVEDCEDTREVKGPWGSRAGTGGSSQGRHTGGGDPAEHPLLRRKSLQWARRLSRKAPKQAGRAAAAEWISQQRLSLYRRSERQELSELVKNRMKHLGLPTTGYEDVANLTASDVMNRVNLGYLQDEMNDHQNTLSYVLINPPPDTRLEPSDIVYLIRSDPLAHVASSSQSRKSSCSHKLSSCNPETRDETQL
Put plainly: FluxOR potassium ion channel assay in HEK-Slack cells. The format is cell-based. The following applies: Na+ free buffer with 2 mM Ca2+, 2 mM Mg2+, 0.03% DMSO, mean with 95% confidence interval; for EC50: read-out: FluxOR assay EC50; for Emax: read-out: FluxOR assay EMAX (% relative to Loxapine). As for the experimental part: For that purpose, cultured HEK293 cells stably expressing human Slack (herein referred to as HEK-Slack cells) were incubated with compounds in a Na^+ free buffer to prevent compound-independent Slack activation by monovalent cations^7,19.
In detail, in these experiments, the Slack-activating efficacy and potency of the novel compounds was determined using a commercial FluxOR™ Potassium Ion Channel Assay (Invitrogen). HEK293 cells stably expressing human Slack (herein referred to as HEK-Slack cells) were plated at a density of 50,000 cells per well of a poly-D-lysine coated (75 μg/mL, Sigma Aldrich) 96-well, black-walled microplate with clear bottom (Greiner Bio-One) in DMEM containing 10% FBS and 1% penicillin/streptomycin 24 hours prior to assaying.
On the experiment day, cells were loaded with FluxOR™ dye according to the manufacturer's protocol. A Na^+-free assay buffer containing 140 mM choline chloride, 5 mM KCl, 2 mM CaCl2), 2 mM MgSO4, 10 mM HEPES, 5.55 mM glucose, adjusted to pH 7.4 with KOH, was used. To reduce background fluorescence all assay components were complemented by 10% BackDrop™ Background Suppressor (Invitrogen). […]
After washing steps, cells were incubated with compounds for 30 min at 37° C. All compounds were prepared as a 33.3 mM DMSO stock and diluted at the experimental day to a final concentration of 100, 50, 25, 12.5, 6.25, and 3.125 μM in assay buffer containing […] DMSO. […] After stimulation with Tl2SO4 solution, the fluorescence was measured over 100 s (excitation 485 nm, emission 525 nm) using an Infinite M200 Microplate Reader (Tecan). Assays run in triplicate and the ratio to baseline fluorescence was calculated for all time points. Dose-response curves comprising six concentrations were performed in triplets using fluorescence/fluorescenceBaseline ratios at the 100th second.

The subject of data set [2] is chloroquine-induced scratching behavior of mice. Put plainly: Chloroquine-induced itch model, topical application of creme. The following applies: 5% in hydrophilic creme (Basiscreme DAC), topical 30 min prior to s.c. chloroquine. The format is in vivo. The method, then:
Animals: Experiments were performed in 8-16 week-old C57BL/6N mice (Charles River, Sulzfeld, Germany) of either sex. The animals were housed under a 12 h light/dark cycle with access to food and water ad libitum. All experiments adhered to the Animal Research: Reporting on In Vivo Experiments (ARRIVE) guidelines and were approved by and conducted in accordance with the regulations of the local Animal Welfare authorities (Regierungspräsidium Darmstadt, Germany; approval number V54-19c20/15-FR/2011). All behavioral studies were conducted during the light cycle of the day at room temperature (20-24° C.) by an observer blinded for the treatment of the animals.
Drug formulation: A creme formulation of Compound 6 and Compound 21 was prepared by mixing a hydrophilic creme (Basiscreme DAC) with 5% of each Slack activator.
Behavioral assessment: Three to four days before the day of the experiment, the fur on the dorsolateral aspect of the neck was shaved under brief isoflurane anesthesia. On the testing day, Compound 6 creme, Compound 21 creme, or creme vehicle were applied topically on the shaved region of the neck under brief isoflurane anesthesia and the mice were habituated to a Plexiglas cylinder (30 cm in diameter) for 30 min immediately thereafter. […] The number of scratching bouts directed towards the nape of the neck was assessed over 30 min by videotaping.

The subject of data set [3] is heart rate and breath rate of mice. Put plainly: Pulse oximetry on conscious, freely moving mice. The class given is in vivo. As to conditions: 10 mg/kg i.p., observation period of 30 min. The method, then: Finally, potential side effects of Compound 6 were assessed by measuring cardiovascular functions by pulse oximetry.

As usually defined, the EC50 is the concentration giving half of the maximal effect. As usually defined, the Emax is the maximal effect, on the per cent scale that the assay sets. In the case of `O=c1nc(CN2CCN(C3=Nc4ccccc4Oc4ccc(C(F)(F)F)cc43)CC2)[nH][nH]1` [Compound 11, 5-((4-(2-(Trifluoromethyl)dibenzo[b,f][1,4]oxazepin-11-yl)piperazin-1-yl)methyl)-1,2-dihydro-3H-1,2,4-triazol-3-one], in data set [1], the EC50 was found to be 10.7 µM and the Emax is 199%.

`O=c1nc(CN2CCN(C3=Nc4cc(F)ccc4Oc4ccc(C(F)(F)F)cc43)CC2)[nH][nH]1` [Compound 18, 5-((4-(8-Fluoro-2-(trifluoromethyl)dibenzo[b,f][1,4]oxazepin-11-yl)piperazin-1-yl)methyl)-1,2-dihydro-3H-1,2,4-triazol-3-one]: in data set [1], the EC50 was found to be 11.2 µM and the Emax amounted to 127%.

Turning to `O=c1nc(CN2CCN(C3=Nc4cc(F)ccc4Oc4ccc(Cl)cc43)CC2)[nH][nH]1` [Compound 19, 5-((4-(2-Chloro-8-fluorodibenzo[b,f][1,4]oxazepin-11-yl)piperazin-1-yl)methyl)-1,2-dihydro-3H-1,2,4-triazol-3-one], in data set [1], the EC50 is 21.1 µM and the Emax came out at 117%.

As to `O=c1nc(CN2CCCN(C3=Nc4ccccc4Oc4ccc(C(F)(F)F)cc43)CC2)[nH][nH]1` [Compound 20, 5-((4-(2-(Trifluoromethyl)dibenzo[b,f][1,4]oxazepin-11-yl)-1,4-diazepan-1-yl)methyl)-1,2-dihydro-3H-1,2,4-triazol-3-one], in data set [1], the EC50 is 26.2 µM and the Emax is 129%.

With `OCCN1CCN(C2=Nc3cc(F)ccc3Oc3ccc(C(F)(F)F)cc32)CC1` [Compound 21, 2-(4-(8-Fluoro-2-(trifluoromethyl)dibenzo[b,f][1,4]oxazepin-11-yl)piperazin-1-yl) ethan-1-ol], in data set [1], the EC50 amounted to 10.5 µM and the Emax was 264%. Further, the “chloroquine-induced scratching behavior after topical application” value in data set [2] is on record as “significantly ameliorated scratching behavior”.

For the compound `CN1CC[C@]23c4c5ccc(O)c4O[C@H]2[C@@H](O)C=C[C@H]3[C@H]1C5` [morphine, reference compound], in data set [3], the breath rate result is listed as “significantly reduced” and the heart rate result is “significantly reduced”.
